The numbers were not newly measured in patent US7258850B2, “Methods and compositions for treating erectile dysfunction” (Aradigm Corporation, priority 1999, dated 2007), which cites them from elsewhere.

Series [1] has as its system dopamine D1 and D2 receptor. To be noted: rats, apomorphine in combination with sildenafil.
Series [2] relates to rabbit corpus carvernosum. To be noted: rabbit tissue.
A further series concerns human corpus carvernosum. To be noted: human tissue.
In the next series the test system is Rho-kinase. To be noted: applied topically, rats.
The next series concerns the target T1, sGC (Rattus norvegicus, UniProt P19686+P20595).
T1 construct: host or cells: in vivo, rat corpus cavernosum
T1 sequence (P20595 1-619): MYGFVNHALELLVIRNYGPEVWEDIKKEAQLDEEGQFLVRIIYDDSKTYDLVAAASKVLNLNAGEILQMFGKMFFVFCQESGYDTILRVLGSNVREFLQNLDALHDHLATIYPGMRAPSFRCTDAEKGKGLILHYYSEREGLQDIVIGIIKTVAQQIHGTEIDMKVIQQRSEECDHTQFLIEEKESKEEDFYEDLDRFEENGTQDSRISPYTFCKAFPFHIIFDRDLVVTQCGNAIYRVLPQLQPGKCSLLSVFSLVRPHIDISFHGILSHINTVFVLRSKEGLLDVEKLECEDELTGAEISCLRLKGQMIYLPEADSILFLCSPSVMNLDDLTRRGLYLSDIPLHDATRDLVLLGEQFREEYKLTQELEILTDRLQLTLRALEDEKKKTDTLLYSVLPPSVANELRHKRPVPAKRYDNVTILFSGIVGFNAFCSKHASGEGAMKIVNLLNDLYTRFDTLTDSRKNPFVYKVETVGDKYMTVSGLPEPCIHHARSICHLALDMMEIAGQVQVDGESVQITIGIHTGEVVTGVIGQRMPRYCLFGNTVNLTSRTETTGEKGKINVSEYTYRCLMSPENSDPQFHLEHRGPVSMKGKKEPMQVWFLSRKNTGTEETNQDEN
T1 sequence (P19686 1-690): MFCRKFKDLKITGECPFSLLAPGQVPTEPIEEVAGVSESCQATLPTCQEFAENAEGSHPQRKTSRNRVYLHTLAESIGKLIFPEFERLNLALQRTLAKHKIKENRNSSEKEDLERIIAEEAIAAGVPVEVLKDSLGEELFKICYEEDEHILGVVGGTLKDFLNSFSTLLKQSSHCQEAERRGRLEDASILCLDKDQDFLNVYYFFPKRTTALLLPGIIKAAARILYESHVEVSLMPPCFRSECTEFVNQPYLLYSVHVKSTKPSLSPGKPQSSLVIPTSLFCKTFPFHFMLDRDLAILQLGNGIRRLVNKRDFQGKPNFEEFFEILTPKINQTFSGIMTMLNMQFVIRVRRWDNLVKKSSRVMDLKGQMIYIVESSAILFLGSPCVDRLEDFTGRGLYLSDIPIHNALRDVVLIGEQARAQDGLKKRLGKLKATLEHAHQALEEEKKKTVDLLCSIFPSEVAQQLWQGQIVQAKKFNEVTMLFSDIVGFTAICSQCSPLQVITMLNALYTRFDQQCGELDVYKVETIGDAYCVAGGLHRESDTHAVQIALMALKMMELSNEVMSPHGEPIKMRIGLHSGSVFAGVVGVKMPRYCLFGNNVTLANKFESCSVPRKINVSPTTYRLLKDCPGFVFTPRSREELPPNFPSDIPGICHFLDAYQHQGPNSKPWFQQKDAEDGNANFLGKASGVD
To be noted: administered intracavernously, rats.

A further series has as its system smooth muscle. To be noted: intracavernous.

Structures can show the parent of a compound that is named as a salt. Where two headings read alike, the source gives them in different places. No end group written: not given here.

`CN1CCc2cccc3c2[C@H]1Cc1ccc(O)c(O)c1-3` [Apomorphine]: the “duration of erectile response” value in series [1] is reported as “prolonged in combination with sildenafil”; in series [1] (listed as apomorphine) it was “prolonged by sildenafil”. On to `Nc1nc(-c2nn(Cc3ccccc3F)c3ncccc23)ncc1C1CC1` [BAY-41-2272], for which the “relaxation of corpus cavernosum relative to YC-1” value (in series [2]; in the series on human corpus carvernosum) was “more potently than YC-1” throughout.

For the compound `C[C@@H](N)[C@H]1CC[C@H](C(=O)Nc2ccncc2)CC1` [Y-27632], the erection result in the series on Rho-kinase is “stimulated erection”. `OCc1ccc(-c2nn(Cc3ccccc3)c3ccccc23)o1` [YC-1, 3-(5′-hydroxymethyl-2′furyl)-1-benzyl-indazole]: the erection result at sGC is “elicited dose-dependent erection”. With `CCCc1nn(C)c2c(=O)[nH]c(-c3cc(S(=O)(=O)N4CCN(C)CC4)ccc3OCC)nc12` [sildenifil citrate, Sildenafil citrate], the solubility in water result is “relatively insoluble in water”.

Take “Vasoactive intestinal peptid: intracavernous drug, potent smooth muscle relaxant (HSDAVFTDNYTRLRKQMAVKKYLNSILN; ends and bridges not checked; UniProt P01282 125-152, looked up)”: in the series with smooth muscle, the duration of effect result was “up to 2.5 hours”.
